Measurements: PubChem BioAssay AID270 (DTP/NCI, 2004)
Inconclusive results are not listed.

System: BDF1 mice, s.c. Lewis lung carcinoma, T/C %
Test: NCI In Vivo Anticancer Drug Screen. Data for tumor model Lewis Lung Carcinoma (subcutaneous) in B6D2F1 (BDF1) mice
Outline: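 Tumor-bearing mice were treated with test compound, and either survival or tumor size was recorded. Values are the treated-group measurement divided by that of the vehicle-treated control group.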

[1] = endpoint: median survival time, dose: 25.0 mg/kg/injection, schedule: Q01DX009 (ip), vehicle: Klucel (hydroxypropylcellulose) (HPC), higher = longer survival
[2] = endpoint: median survival time, dose: 50.0 mg/kg/injection, schedule: Q01DX009 (ip), vehicle: Klucel (hydroxypropylcellulose) (HPC), higher = longer survival
[3] = endpoint: median survival time, dose: 100.0 mg/kg/injection, schedule: Q01DX009 (ip), vehicle: Klucel (hydroxypropylcellulose) (HPC), higher = longer survival

O=CN1CCOCC1
T/C (endpoint: mean tumor weight, dose: 37.0 mg/kg/injection, schedule: Q01DX011 (ip), vehicle: saline, higher = larger tumour): 90 % of control | T/C (endpoint: mean tumor weight, dose: 55.0 mg/kg/injection, schedule: Q01DX011 (ip), vehicle: saline, higher = larger tumour): 152 % of control | T/C (endpoint: mean tumor weight, dose: 83.0 mg/kg/injection, schedule: Q01DX011 (ip), vehicle: saline, higher = larger tumour): 103 % of control | T/C (endpoint: mean tumor weight, dose: 250.0 mg/kg/injection, schedule: Q01DX011 (ip), vehicle: saline, higher = larger tumour): 81 % of control | T/C (endpoint: mean tumor weight, dose: 500.0 mg/kg/injection, schedule: Q01DX011 (ip), vehicle: saline, higher = larger tumour): 100 % of control | T/C (endpoint: mean tumor weight, dose: 1000.0 mg/kg/injection, schedule: Q01DX011 (ip), vehicle: saline, higher = larger tumour): 92 % of control

CC1(c2ccc(N(CCCl)CCCl)cc2)NC(=O)NC1=O (stereo unspecified)
T/C (endpoint: median survival time, dose: 12.5 mg/kg/injection, schedule: Q01DX009 (ip), vehicle: Klucel (hydroxypropylcellulose) (HPC), higher = longer survival): 111 % of control | T/C [1]: 91 % of control | T/C [2]: 98 % of control | T/C [3]: 115 % of control

Nc1n[nH]c(N)n1
T/C (endpoint: median survival time, dose: 100.0 mg/kg/injection, schedule: Q01DX009 (ip), vehicle: saline with Tween-80, higher = longer survival): 113 % of control | T/C (endpoint: median survival time, dose: 200.0 mg/kg/injection, schedule: Q01DX009 (ip), vehicle: saline with Tween-80, higher = longer survival): 102 % of control | T/C (endpoint: median survival time, dose: 400.0 mg/kg/injection, schedule: Q01DX009 (ip), vehicle: saline with Tween-80, higher = longer survival): 95 % of control | T/C (endpoint: median survival time, dose: 800.0 mg/kg/injection, schedule: Q01DX009 (ip), vehicle: saline with Tween-80, higher = longer survival): 110 % of control | T/C (endpoint: median tumor weight (est.), dose: 100.0 mg/kg/injection, schedule: Q01DX009 (ip), vehicle: saline with Tween-80, higher = larger tumour): 100 % of control | T/C (endpoint: median tumor weight (est.), dose: 200.0 mg/kg/injection, schedule: Q01DX009 (ip), vehicle: saline with Tween-80, higher = larger tumour): 103 % of control | T/C (endpoint: median tumor weight (est.), dose: 400.0 mg/kg/injection, schedule: Q01DX009 (ip), vehicle: saline with Tween-80, higher = larger tumour): 97 % of control | T/C (endpoint: median tumor weight (est.), dose: 800.0 mg/kg/injection, schedule: Q01DX009 (ip), vehicle: saline with Tween-80, higher = larger tumour): 91 % of control

COC(=O)C(N)CCCCNc1ccc2c(cc1=O)C(NC(C)=O)CCc1cc(OC)c(OC)c(OC)c1-2 (stereo unspecified)
T/C (endpoint: median survival time, dose: 25.0 mg/kg/injection, schedule: Q02DX009 (ip), vehicle: saline with Tween-80, higher = longer survival): 100 % of control | T/C (endpoint: median survival time, dose: 50.0 mg/kg/injection, schedule: Q02DX009 (ip), vehicle: saline with Tween-80, higher = longer survival): 94 % of control

CC1(C)N=C(N)N=C(N)N1c1cccc(CC(=O)Nc2ccc(S(=O)(=O)F)cc2)c1
T/C [1]: 100 % of control | T/C [2]: 95 % of control | T/C [3]: 98 % of control | T/C (endpoint: median survival time, dose: 150.0 mg/kg/injection, schedule: Q01DX009 (ip), vehicle: Klucel (hydroxypropylcellulose) (HPC), higher = longer survival): 94 % of control

COc1cc2c(c(OC)c1OC)-c1ccc(OC)c(=O)cc1[C@@H](NC(=O)CF)CC2
T/C (endpoint: median survival time, dose: 0.04 mg/kg/injection, schedule: Q01DX009 (ip), vehicle: saline with Tween-80, higher = longer survival): 100 % of control | T/C (endpoint: median survival time, dose: 0.09 mg/kg/injection, schedule: Q01DX009 (ip), vehicle: saline with Tween-80, higher = longer survival): 95 % of control | T/C (endpoint: median survival time, dose: 0.18 mg/kg/injection, schedule: Q01DX009 (ip), vehicle: saline with Tween-80, higher = longer survival): 95 % of control

CCCCCCC(=O)NC1=C(N2CC2)C(=O)C(NC(=O)CCCCCC)=C(N2CC2)C1=O
T/C (endpoint: mean tumor weight, dose: 3.8 mg/kg/injection, schedule: Q01DX011 (ip), vehicle: other, higher = larger tumour): 101 % of control | T/C (endpoint: mean tumor weight, dose: 7.5 mg/kg/injection, schedule: Q01DX011 (ip), vehicle: other, higher = larger tumour): 81 % of control | T/C (endpoint: mean tumor weight, dose: 30.0 mg/kg/injection, schedule: Q01DX011 (ip), vehicle: other, higher = larger tumour): 78 % of control | T/C (endpoint: mean tumor weight, dose: 60.0 mg/kg/injection, schedule: Q01DX011 (ip), vehicle: other, higher = larger tumour): 30 % of control

O=C(CCCN1CCC(O)(c2cccc(C(F)(F)F)c2)CC1)c1ccc(F)cc1
T/C (endpoint: median survival time, dose: 25.0 mg/kg/injection, schedule: Q04DX003 (ip), vehicle: saline with Tween-80, higher = longer survival): 92 % of control | T/C (endpoint: median survival time, dose: 50.0 mg/kg/injection, schedule: Q04DX003 (ip), vehicle: saline with Tween-80, higher = longer survival): 121 % of control

CCOc1ccccc1C1N(Cc2ccc(OC)cc2)CCCN1Cc1ccc(OC)cc1
T/C (endpoint: mean tumor weight, dose: 74.0 mg/kg/injection, schedule: Q01DX011 (ip), vehicle: other, higher = larger tumour): 103 % of control | T/C (endpoint: mean tumor weight, dose: 111.0 mg/kg/injection, schedule: Q01DX011 (ip), vehicle: other, higher = larger tumour): 93 % of control | T/C (endpoint: mean tumor weight, dose: 166.0 mg/kg/injection, schedule: Q01DX011 (ip), vehicle: other, higher = larger tumour): 93 % of control
